According to patent US20250093329A1, “SCREENING OF COMPOUNDS” (THE UNIVERSITY OF TULSA, priority 2022, published 2025):

Tests used:
Type in all cases: cell-based
each cell line tested = assay: ATP levels by CellTiter-Glo, all cell lines of Table 1 taken together; settings: 100 μM compound with 2-DG, Table 1 cell lines
Source text: A wide variety of ATP luminescing detection reagents are available commercially. So long as the reagent produces a luminescence in the presence of ATP, the reagent will be suitable for use in the present method. Suitable reagents include but are not limited to any ATP dependent luciferase such as but not limited to firefly luciferase, other modified luciferase based reagents, i.e. luciferase derivatives. According to the rapid method for determining the anti-cancer activity of a compound, a sample of living cells is distributed across a number of testing wells. Typically, 96-well plates are used; however, the number of wells is not critical to the current method. When using a 96-well plate the number of living cells will commonly be about 20,000. […] The sample wells contain a cell growth medium to promote cell health and growth and an additive to prevent bacterial contamination of the wells. One common example of the cell growth medium is DMEM with 10% FBS as described above. One example of the additive to prevent bacterial contamination is a solution of penicillin G and streptomycin referred to commonly as Pen-Strep. The Pen-Strep solution typically contains 5000 units of penicillin G and 5000 micrograms of streptomycin. Thus, the rapid determination of anti-cancer compounds can be carried out using the following method. • The desired number of cells are distributed in a 96-well plate containing 100 μL DMEM plus 10% FBS with optional Pen-Strep. • After 24 hours, cells are treated with the compound of interest or a 5% solution of dimethyl sulfoxide (DMSO) in water as a control. • The time period for exposure to the compound of interest and the DMSO control will vary depending on the luminescing detection reagent. However, when using a commercially available reagent such as resazurin (CellTiter Blue commercially available from Promega) or luciferase or a luciferase derivative (CellTiter Glo commercially available from Promega) the time period can be readily determined with reference to literature from the commercial source. Other luminescing detection agents can also be used with minimal experimentation to determine the desired compound exposure time. • Upon completion of the time period for exposure to the compound of interest or the DMSO, 10 μL of the luminescing detection reagent is added and the cells are lysed by a detergent added along with the luminescing detection reagent. • When the reagent is resazurin, as found in CellTiter-Blue the time period for exposure to the compound of interest and the DMSO will be about 24 hours. • When the reagent is luciferase or a luciferase derivative as found in CellTiter-Glo the time period for exposure to the compound of interest and the DMSO will be about 30 minutes to four hours. • The luminescing detection reagent is added over a period of time. • When using resazurin, the time period for the addition of the 10 μl volume takes place over a period of about one to four hours. • When using luciferase or a luciferase derivative, the time period is about 3 minutes to about 7 minutes, typically about 5 minutes. • During the time period of addition of the luminescing detection reagent the resulting luminescence is measured using conventional methods and devices. […] If the compound of interest deactivates the cell, then the cell produces less or no ATP. As a result, the cells in the well treated with the compound of interest will have a lower luminescence value as compared to the cells in wells treated with DMSO. • The value for the cells treated with the compound of interest is reported as a “percent of control” (POC) value. The determination of POC is calculated by dividing the averaged response from duplicate wells containing the cells as treated with the compound of interest by the average response of duplicate control wells which contain only cells and DMSO (in other words, a blank control experiment). […]

H293 = assay: Cytotoxicity testing, CellTiter-Blue assay, 24 hour (FIG. 3); settings: 100 μM, 24 hour compound incubation
Protocol: (§1) The cytotoxicity tests were carried out in the following manner. Living cells are known to convert resazurin to the fluorescent compound resorufin. Test systems which rely upon this reaction are commercially available. One such test is known at the Cell Titer Blue Cell Viability test assay from Promega. Cell cultures for each of the identified cancer lines were obtained from ATCC and maintained in Dulbecco's Modified Eagle Medium (DMEM) supplemented with 10% fetal bovine serum (FBS) and pen/strep. As known to those skilled in the art, DMEM typically includes the components identified below.
(§2) The test method provides for incubating the cell cultures at temperatures which correspond to the range of body temperatures experienced by the patient from which the cancer cells were obtained. Typically, incubation temperatures will be between the temperatures of 36.1° C. and 37.2° C. In most cases incubation will occur at 37° C. Additionally, the cell cultures are kept under an atmosphere which mimics cell conditions of the tumor within the patient's body. In most cases, the tumor microenvironment (TME) is characterized by hypoxia (low oxygen) and may also be characterized by hypercapnia (increased CO2). Hypercapnia results from decreased blood flow which limits CO2 elimination. Restricted CO2 elimination leads to increased HCO3^− conversion to CO2 in order to neutralize lactate as altered tumor cell metabolism produces more CO2 than normal. Normal tissue averages about 5% oxygen with oxygen ranges from about 3% to 7.4%. […] In the case of CO2, normocapnic is around 5% CO2, while hypercapnic can rise to 10% CO2. Therefore, to mimic the environment of the tumor the method utilizes an incubator designed to provide the optimal gaseous environment corresponding to that of the tumor. Thus, the incubator will be capable of maintaining an atmosphere having an oxygen content in the range of […] and a CO2 in the range of 1% to 10%.
(§3) After allowing for proliferation of the cells, the cells were distributed across a plurality of test wells containing from 100 μL DMEM plus 10% FBS and allowed to attach to the surface of the test wells. Typically, the time for attachment will require about 12 hours to about 18 hours. […] Following treatment of the cells with the N-benzyl sulfonamide or control, the toxicity of the compound to the cells will be determined by addition of a luminescing agent. […] Subsequently, the fluorescence of resazurin is measured by excitation at 560 nm and recording the emission at 590 nm within an instrument configured to measure fluorescence intensity. Two commercially available systems are the BioTek Cytation 5 plate reader and the Promega Glomax Multi+detection system. […]

NCI-H196 = assay: as above; settings: 100 μM, 24 hour compound incubation
Protocol: as §1, §2, §3

[1] = system: HEK293 (kidney cancer) cells; assay: Traditional versus rapid screening (FIG. 15); settings: DMEM, CellTiter-Glo 1 hr, with or without 2DG, versus CellTiter-Blue/CellTiter-Glo 24 hr
Source text: FIG. 15 provides a comparison of traditional cytotoxicity testing the improved testing method described herein using HEK293 cells (kidney cancer), DMEM media, and the library sulfonamide compounds 1-30 found in FIGS. 1A-1C.
When used to identify compounds for specific patients, the following steps will be carried out: • Individualized patient cells will be acquired from a tumor biopsy and cultured/grown in patient blood serum and/or plasma. (In most instances the cells will be obtained using a needle biopsy; i.e. fine needle aspiration biopsy. Optionally, the cells may be obtained from resected tumor (i.e. excisional biopsy, which is an attempt at complete tumor removal), and/or a core biopsy; (i.e. removal of part of the tumor). Alternatively, cells may be obtained from blood draw samples, which would contain leukemia, lymphoma and myeloma cells.) • The cells (as few as 100 cells per experiment) will be screened directly in patient blood serum and/or plasma in the absence or presence of glycolysis inhibitor, 2-deoxyglucose (2DG) using a rapid (1-2 hr) screening assay (CellTiter-Glo, or “CTG”). • NOTE: while the discussion herein focuses on CTG, other assays suitable for measuring changes in ATP levels will perform equally as well. […] DMEM contains glucose, but L15 has substituted glucose with galactose. […]

Row | Structure (SMILES) | effectiveness across the cell lines, with 2-DG (each cell line tested) | further results
1 | Cc1ccc(S(=O)(=O)NCc2c[nH]c3ccccc23)cc1 [Compound 1, N-[(1H-indol-3-yl)methyl]-4-methylbenzenesulfonamide] | little effect | –
2 | O=S(=O)(NCc1c[nH]c2ccccc12)c1ccccc1 [Compound 3, N-[(1H-indol-3-yl)methyl]benzenesulfonamide] | little effect | –
3 | CC(=O)n1cc(CNS(=O)(=O)c2ccc(Cl)cc2)c2ccccc21 [Compound 4, N-[(1-acetyl-1H-indole-3-yl)methyl]-4-chlorobenzenesulfonamide] | little effect | –
4 | Cc1ccc(S(=O)(=O)NCc2c[nH]c3cccc(Br)c23)cc1 [Compound 5, N-[(4-bromo-1H-indol-3-yl)methyl]-4-methylbenzenesulfonamide] | – | effectiveness, percent reduction in cell viability (FIG. 3) (H293): effective; effectiveness, percent reduction in cell viability (FIG. 3) (NCI-H196): effectiveness; sensitivity of rapid assays versus traditional methods (FIG. 15) [1]: enhanced sensitivity
5 | Cc1cccc2c(CNS(=O)(=O)c3ccccc3)c[nH]c12 [Compound 6, N-[(7-methyl-1H-indol-3-yl)methyl]benzenesulfonamide] | – | effectiveness, percent reduction in cell viability (FIG. 3) (H293): effective
6 | Cc1ccc(S(=O)(=O)NCc2ccc3ncccc3c2)cc1 [Compound 22, 4-methyl-N-(quinolin-6-ylmethyl)benzenesulfonamide] | little effect | –
7 | COc1ccc(S(=O)(=O)NCc2c[nH]c3ccccc23)cc1 [Compound 23, N-(1H-indol-3-ylmethyl)-4-methoxybenzenesulfonamide] | little effect | –
